Measured values from ChEMBL document CHEMBL5696442, “Discovery of type II inhibitors of TGFβ-activated kinase 1 (TAK1) and mitogen-activated protein kinase kinase kinase kinase 2 (MAP4K2)” (J Med Chem, 2015).
Calls of active or inactive are those of the source. The calls are words filed in the database; no cut-off is given here.

Legend:
[1] = molecular target: 5'-AMP-activated protein kinase catalytic subunit alpha-1 (Homo sapiens) (UniProt Q13131); assay: Inhibition of AMPKa1 Lys1 labeling site in human Huh-7 cell lysate at 1 uM by KiNativ Profiling analysis relative to control; format: subcellular
5'-AMP-activated protein kinase catalytic subunit alpha-1 (Homo sapiens), sequence (Q13131 whole entry, looked up): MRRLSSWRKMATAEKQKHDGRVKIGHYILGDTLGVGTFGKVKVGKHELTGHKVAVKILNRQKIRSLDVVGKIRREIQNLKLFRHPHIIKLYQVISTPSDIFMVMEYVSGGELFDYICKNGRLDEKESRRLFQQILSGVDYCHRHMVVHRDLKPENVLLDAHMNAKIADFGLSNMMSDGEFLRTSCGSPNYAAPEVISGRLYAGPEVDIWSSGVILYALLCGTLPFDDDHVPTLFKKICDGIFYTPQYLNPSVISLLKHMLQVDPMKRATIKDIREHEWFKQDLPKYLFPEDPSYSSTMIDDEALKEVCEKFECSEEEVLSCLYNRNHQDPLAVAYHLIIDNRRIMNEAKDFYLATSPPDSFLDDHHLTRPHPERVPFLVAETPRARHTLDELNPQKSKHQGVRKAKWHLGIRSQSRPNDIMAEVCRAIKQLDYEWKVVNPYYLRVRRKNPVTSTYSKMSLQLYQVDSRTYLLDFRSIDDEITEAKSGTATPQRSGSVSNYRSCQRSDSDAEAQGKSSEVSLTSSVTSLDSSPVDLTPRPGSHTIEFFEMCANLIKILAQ

[2] = molecular target: T1, Dual specificity mitogen-activated protein kinase kinase 4 (Homo sapiens) (UniProt P45985); assay: Inhibition of MAP2K4 Lys2 labeling site in human Huh-7 cell lysate at 1 uM by KiNativ Profiling analysis relative to control; format: subcellular
T1 sequence (whole entry): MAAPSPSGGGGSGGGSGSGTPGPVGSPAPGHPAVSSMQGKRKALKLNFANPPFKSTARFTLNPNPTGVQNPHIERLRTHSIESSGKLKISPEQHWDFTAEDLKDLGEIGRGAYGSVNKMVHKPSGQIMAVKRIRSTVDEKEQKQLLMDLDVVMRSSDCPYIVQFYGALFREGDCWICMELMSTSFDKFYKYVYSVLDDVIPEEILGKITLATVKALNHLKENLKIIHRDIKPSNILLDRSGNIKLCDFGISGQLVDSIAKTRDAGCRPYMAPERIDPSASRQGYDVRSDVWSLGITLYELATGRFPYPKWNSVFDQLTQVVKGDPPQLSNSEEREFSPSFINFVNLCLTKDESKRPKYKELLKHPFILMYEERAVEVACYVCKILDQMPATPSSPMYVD

[3] = molecular target: Cyclin-dependent kinase 1 (Homo sapiens) (UniProt P06493); assay: Inhibition of CDC2 Lys2 labeling site harbouring DLKPQNLLIDDKGTIK in human A-375 cells at 0.05 uM by KiNativ Profiling analysis relative to control; format: cell-based
Cyclin-dependent kinase 1 (Homo sapiens), sequence (P06493 whole entry, looked up): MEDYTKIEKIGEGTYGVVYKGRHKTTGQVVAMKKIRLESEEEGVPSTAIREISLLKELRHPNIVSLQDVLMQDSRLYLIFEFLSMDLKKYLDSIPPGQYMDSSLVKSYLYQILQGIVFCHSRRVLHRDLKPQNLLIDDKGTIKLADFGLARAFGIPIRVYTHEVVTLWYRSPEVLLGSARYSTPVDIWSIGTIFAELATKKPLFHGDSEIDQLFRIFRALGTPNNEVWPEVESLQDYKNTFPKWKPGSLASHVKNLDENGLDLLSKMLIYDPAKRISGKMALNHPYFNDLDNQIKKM

[4] = molecular target: Receptor tyrosine-protein kinase erbB-3 (Homo sapiens) (UniProt P21860); assay: Inhibition of HER3/ErbB3 Lys1 labeling site in human A-375 cells at 0.05 uM by KiNativ Profiling analysis relative to control; format: cell-based
[5] = system: Receptor-type tyrosine-protein kinase FLT3 (Homo sapiens), P36888 [K663Q]; assay: Inhibition of FLT3 K663Q mutant (unknown origin) at 10 uM by Ambit Kinomescan binding assay relative to control
[6] = molecular target: cGMP-dependent protein kinase 2 (Homo sapiens) (UniProt Q13237); assay: Inhibition of PRKG2 (unknown origin) at 10 uM by Ambit Kinomescan binding assay
cGMP-dependent protein kinase 2 (Homo sapiens), sequence (Q13237 whole entry): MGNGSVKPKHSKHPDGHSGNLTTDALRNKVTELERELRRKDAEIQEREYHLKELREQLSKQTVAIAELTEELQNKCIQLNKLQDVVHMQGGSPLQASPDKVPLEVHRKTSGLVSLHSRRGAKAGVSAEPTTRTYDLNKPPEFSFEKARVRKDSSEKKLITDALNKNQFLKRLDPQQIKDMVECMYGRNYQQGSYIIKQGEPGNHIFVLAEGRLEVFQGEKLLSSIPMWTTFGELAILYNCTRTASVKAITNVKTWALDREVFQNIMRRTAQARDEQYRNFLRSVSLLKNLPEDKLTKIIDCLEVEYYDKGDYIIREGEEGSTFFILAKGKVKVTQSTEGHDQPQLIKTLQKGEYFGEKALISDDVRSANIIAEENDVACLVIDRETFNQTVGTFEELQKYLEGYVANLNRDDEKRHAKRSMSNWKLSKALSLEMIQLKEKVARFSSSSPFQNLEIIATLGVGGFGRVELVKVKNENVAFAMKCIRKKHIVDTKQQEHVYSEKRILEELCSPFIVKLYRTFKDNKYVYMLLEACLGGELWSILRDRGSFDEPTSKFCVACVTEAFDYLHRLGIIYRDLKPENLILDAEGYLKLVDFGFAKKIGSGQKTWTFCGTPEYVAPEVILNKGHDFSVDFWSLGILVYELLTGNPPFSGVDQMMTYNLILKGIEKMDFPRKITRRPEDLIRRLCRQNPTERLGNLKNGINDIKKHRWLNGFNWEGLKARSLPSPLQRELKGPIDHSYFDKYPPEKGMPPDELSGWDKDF

[7] = molecular target: SRSF protein kinase 3 (Homo sapiens) (UniProt Q9UPE1); assay: Inhibition of SRPK3 (unknown origin) at 10 uM by Ambit Kinomescan binding assay
SRSF protein kinase 3 (Homo sapiens), sequence (Q9UPE1 whole entry): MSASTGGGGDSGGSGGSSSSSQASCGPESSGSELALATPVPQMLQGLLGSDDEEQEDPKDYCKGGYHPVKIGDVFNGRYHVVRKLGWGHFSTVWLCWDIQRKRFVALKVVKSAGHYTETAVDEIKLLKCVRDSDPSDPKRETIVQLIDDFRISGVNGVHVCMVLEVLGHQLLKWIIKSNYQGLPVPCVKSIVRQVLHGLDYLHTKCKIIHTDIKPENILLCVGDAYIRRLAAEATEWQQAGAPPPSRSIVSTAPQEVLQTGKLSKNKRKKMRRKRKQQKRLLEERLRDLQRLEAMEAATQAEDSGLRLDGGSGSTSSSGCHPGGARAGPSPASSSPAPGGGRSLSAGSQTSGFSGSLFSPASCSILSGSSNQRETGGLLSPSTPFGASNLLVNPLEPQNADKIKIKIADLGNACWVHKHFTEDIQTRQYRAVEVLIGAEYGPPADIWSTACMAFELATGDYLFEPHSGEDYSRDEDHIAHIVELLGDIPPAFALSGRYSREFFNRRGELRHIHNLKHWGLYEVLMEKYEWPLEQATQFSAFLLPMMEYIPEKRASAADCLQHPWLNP

[8] = molecular target: T2, Serine/threonine-protein kinase tousled-like 1 (Homo sapiens) (UniProt Q9UKI8); assay: Inhibition of TLK1 (unknown origin) at 10 uM by Ambit Kinomescan binding assay
T2 sequence (whole entry): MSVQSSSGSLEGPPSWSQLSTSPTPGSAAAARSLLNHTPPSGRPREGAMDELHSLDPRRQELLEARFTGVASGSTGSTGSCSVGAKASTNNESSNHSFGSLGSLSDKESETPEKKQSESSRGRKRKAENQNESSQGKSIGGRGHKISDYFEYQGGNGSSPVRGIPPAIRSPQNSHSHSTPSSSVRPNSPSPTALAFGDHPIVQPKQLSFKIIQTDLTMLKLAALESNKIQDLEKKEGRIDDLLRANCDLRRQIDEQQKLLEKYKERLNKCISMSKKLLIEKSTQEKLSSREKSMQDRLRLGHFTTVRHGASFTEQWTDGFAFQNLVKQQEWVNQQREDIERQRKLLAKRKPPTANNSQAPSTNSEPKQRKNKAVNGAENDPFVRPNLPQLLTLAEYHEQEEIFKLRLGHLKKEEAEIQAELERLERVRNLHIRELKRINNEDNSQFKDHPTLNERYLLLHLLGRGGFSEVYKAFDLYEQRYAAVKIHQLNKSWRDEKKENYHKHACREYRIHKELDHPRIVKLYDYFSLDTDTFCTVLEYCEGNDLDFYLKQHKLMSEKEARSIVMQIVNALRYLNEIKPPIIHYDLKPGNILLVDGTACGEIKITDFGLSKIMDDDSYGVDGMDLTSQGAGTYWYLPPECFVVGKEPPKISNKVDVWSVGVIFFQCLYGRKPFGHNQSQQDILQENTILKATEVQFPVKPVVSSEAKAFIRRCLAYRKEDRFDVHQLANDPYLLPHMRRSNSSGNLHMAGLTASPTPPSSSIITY

[9] = molecular target: T3, Serine/threonine-protein kinase Chk1 (Homo sapiens) (UniProt O14757); assay: Inhibition of CHK1 Lys2 labeling site harbouring DIKPENLLLDERDNLK in human A-375 cells at 5 uM by KiNativ Profiling analysis relative to control; format: cell-based
T3 sequence (whole entry): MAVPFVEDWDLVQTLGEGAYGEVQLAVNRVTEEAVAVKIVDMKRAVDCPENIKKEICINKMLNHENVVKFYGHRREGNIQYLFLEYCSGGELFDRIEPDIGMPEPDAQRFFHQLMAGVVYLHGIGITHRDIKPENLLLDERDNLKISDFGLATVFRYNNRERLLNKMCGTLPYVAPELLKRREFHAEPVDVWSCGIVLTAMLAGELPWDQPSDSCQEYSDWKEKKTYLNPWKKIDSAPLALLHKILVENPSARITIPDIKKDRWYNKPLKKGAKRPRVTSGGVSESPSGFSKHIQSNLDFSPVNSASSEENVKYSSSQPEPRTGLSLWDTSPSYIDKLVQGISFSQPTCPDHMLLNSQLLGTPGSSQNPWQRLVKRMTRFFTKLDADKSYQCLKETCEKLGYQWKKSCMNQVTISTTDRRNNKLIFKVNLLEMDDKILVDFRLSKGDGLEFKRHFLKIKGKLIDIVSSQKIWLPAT

[10] = molecular target: Serine/threonine-protein kinase A-Raf (Homo sapiens) (UniProt P10398); assay: Inhibition of ARAF Lys2 labeling site in human A-375 cells at 0.5 uM by KiNativ Profiling analysis relative to control; format: cell-based
Serine/threonine-protein kinase A-Raf (Homo sapiens), sequence (P10398 whole entry): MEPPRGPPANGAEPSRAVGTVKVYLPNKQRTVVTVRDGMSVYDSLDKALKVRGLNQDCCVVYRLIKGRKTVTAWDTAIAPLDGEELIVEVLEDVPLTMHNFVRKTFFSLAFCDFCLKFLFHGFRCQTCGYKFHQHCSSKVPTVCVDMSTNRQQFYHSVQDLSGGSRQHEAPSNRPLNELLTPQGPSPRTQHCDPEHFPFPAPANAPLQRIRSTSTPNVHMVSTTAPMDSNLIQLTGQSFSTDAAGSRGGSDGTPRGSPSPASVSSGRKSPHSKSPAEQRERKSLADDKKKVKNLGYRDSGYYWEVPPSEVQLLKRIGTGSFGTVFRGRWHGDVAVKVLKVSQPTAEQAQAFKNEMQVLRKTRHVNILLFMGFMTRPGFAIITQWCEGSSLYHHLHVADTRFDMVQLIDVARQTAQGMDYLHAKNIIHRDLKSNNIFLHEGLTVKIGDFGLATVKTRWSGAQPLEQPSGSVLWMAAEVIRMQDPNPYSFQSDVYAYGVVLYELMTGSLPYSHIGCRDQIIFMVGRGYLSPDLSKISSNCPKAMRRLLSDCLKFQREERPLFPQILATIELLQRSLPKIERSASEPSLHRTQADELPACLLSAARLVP

[11] = molecular target: c-Jun N-terminal kinase, JNK (Homo sapiens) (UniProt P45983+P53779+P45984); assay: Inhibition of JNK1/2/3 K2 labeling site in human Huh-7 cells at 10 uM by KiNativ Profiling analysis relative to control; format: cell-based
[12] = Inhibition of KHS1 K2 labeling site in human Huh-7 cells at 10 uM by KiNativ Profiling analysis relative to control; settings: condition cancer
[13] = molecular target: T1, Dual specificity mitogen-activated protein kinase kinase 4 (Homo sapiens); assay: Inhibition of MAP2K4 K2 labeling site harbouring DIKPSNILLDR in human Huh-7 cells at 10 uM by KiNativ Profiling analysis relative to control; format: cell-based
[14] = molecular target: Phosphatidylinositol 4-kinase alpha (Homo sapiens) (UniProt P42356); assay: Inhibition of PIK4CA ATP labeling site in human Huh-7 cells at 1 uM by KiNativ Profiling analysis relative to control; format: cell-based
Phosphatidylinositol 4-kinase alpha (Homo sapiens), sequence (P42356 whole entry, looked up): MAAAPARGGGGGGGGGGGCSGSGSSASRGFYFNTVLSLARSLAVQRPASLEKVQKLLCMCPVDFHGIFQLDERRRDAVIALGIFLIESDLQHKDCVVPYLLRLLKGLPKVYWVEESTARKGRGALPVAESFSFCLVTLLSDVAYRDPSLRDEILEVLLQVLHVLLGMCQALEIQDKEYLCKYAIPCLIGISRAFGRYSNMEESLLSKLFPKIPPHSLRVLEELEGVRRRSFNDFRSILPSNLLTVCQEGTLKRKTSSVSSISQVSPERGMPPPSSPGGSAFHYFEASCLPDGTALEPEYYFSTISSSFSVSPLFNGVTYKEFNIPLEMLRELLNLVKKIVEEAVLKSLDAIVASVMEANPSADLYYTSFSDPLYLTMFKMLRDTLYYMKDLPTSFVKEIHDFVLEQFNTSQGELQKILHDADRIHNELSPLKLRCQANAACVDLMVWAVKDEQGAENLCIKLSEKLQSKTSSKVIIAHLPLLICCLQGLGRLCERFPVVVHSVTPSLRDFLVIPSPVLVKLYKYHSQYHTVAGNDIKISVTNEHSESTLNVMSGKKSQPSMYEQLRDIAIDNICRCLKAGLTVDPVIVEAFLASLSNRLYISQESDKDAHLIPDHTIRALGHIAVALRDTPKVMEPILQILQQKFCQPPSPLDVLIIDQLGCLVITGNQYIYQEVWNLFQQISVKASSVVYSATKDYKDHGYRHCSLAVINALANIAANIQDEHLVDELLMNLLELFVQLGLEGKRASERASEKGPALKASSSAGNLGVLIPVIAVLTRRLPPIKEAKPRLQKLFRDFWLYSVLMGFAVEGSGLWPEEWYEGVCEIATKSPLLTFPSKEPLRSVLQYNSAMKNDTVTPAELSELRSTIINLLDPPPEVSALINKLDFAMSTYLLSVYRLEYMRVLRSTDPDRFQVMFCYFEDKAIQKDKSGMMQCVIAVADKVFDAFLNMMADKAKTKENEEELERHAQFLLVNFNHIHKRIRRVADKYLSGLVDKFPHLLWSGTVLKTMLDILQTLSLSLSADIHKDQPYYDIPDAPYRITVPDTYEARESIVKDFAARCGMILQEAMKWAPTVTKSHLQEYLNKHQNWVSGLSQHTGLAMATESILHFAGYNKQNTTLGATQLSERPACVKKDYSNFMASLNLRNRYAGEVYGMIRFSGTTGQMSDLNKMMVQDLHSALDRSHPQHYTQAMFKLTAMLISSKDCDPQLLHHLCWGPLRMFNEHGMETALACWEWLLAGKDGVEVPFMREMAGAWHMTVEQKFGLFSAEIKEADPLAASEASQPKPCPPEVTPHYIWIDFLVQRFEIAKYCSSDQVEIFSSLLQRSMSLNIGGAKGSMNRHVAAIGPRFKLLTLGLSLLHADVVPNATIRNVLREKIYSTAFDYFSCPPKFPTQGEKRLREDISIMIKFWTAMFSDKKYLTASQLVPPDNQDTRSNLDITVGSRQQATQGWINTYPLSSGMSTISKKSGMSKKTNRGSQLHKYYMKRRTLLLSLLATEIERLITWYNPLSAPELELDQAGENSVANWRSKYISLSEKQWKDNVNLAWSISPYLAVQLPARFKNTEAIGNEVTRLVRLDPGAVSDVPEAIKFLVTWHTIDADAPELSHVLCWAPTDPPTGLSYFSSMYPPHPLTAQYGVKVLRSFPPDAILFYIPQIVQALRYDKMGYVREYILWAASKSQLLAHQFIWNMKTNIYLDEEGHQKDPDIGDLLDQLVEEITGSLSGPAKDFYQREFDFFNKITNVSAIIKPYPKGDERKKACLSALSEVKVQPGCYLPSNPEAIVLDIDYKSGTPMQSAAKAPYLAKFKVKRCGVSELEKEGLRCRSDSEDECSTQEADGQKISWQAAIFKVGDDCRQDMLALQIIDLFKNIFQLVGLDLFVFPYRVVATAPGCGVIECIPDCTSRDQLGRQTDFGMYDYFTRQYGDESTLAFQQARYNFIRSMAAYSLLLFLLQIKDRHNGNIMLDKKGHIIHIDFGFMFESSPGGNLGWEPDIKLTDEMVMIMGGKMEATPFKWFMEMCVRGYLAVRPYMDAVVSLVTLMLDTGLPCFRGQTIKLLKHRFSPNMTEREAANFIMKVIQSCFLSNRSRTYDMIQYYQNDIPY

CNc1cc(Oc2cc(C(=O)Nc3cc(N4CCN(C)CC4)cc(C(F)(F)F)c3)ccc2C)ncn1
inhibition [1]: 8.7% | inhibition [2]: -3.9%

CCN1CCN(Cc2ccc(NC(=O)c3ccc(C)c(/C=C/c4cnc5[nH]ccc5c4OC)c3)cc2C(F)(F)F)CC1
inhibition [3]: 2.1% | inhibition [4]: 21.3%

CCN1CCN(Cc2ccc(NC(=O)c3ccc(C)c(Oc4ccnc5[nH]ccc45)c3)cc2C(F)(F)F)CC1
inhibition [5]: 0% | inhibition [6]: inactive | inhibition [7]: inactive | inhibition [8]: inactive | inhibition [9]: 32.3% | inhibition [10]: 18.4% | inhibition [11]: 60.1% | inhibition at 10 µM [12]: 0.3% | inhibition [13]: -4.6% | inhibition [14]: 3.5%
